Data as given in PubChem BioAssay (NCI).
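Values below derive from 48-hour exposures of cells grown in 96-well plates, with endpoints linearly interpolated between the two concentrations bracketing the appropriate inhibition level. GI50 is the concentration that inhibits growth by half. TGI: total growth inhibition.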

How the values were obtained:
Test in all cases: inhibition of tumour cell growth, NCI panel, 48 h; in the data active means GI50 below about 0.43 µM; inactive means the rest
SF-295 CNS = system: SF-295 CNS
K-562 leukemia = system: K-562 leukemia
SNB-75 CNS = system: SNB-75 CNS
EKVX NSCLC = system: EKVX NSCLC
SK-MEL-5 melanoma = system: SK-MEL-5 melanoma
A549 NSCLC = system: A549 NSCLC
U251 CNS = system: U251 CNS
786-0 renal = system: 786-0 renal
RPMI-8226 leukemia = system: RPMI-8226 leukemia
SF-268 CNS = system: SF-268 CNS
HL-60(TB) leukemia = system: HL-60(TB) leukemia
MALME-3M melanoma = system: MALME-3M melanoma
OVCAR-3 ovarian = system: OVCAR-3 ovarian
SNB-19 CNS = system: SNB-19 CNS
SK-MEL-28 melanoma = system: SK-MEL-28 melanoma
A498 renal = system: A498 renal
NCI-H23 lung = system: NCI-H23 lung
HCT-116 colon = system: HCT-116 colon
MDA-MB-435 = system: MDA-MB-435
UACC-257 melanoma = system: UACC-257 melanoma
M14 melanoma = system: M14 melanoma
MDA-MB-231 breast = system: MDA-MB-231 breast
NCI/ADR-RES ovarian = system: NCI/ADR-RES ovarian
RXF 393 renal = system: RXF 393 renal
PC-3 prostate = system: PC-3 prostate
COLO 205 colon = system: COLO 205 colon
KM12 colon = system: KM12 colon
T-47D breast = system: T-47D breast
SF-539 CNS = system: SF-539 CNS
HCT-15 colon = system: HCT-15 colon
SK-OV-3 ovarian = system: SK-OV-3 ovarian
UACC-62 melanoma = system: UACC-62 melanoma
CAKI-1 renal = system: CAKI-1 renal
IGROV1 ovarian = system: IGROV1 ovarian
TK-10 renal = system: TK-10 renal
NCI-H226 lung = system: NCI-H226 lung
BT-549 breast = system: BT-549 breast
HT29 colon = system: HT29 colon
SR leukemia = system: SR leukemia
HS 578T breast = system: HS 578T breast
HOP-92 NSCLC = system: HOP-92 NSCLC
NCI-H460 lung = system: NCI-H460 lung
DU-145 prostate = system: DU-145 prostate
MCF7 breast = system: MCF7 breast
OVCAR-8 ovarian = system: OVCAR-8 ovarian
SK-MEL-2 melanoma = system: SK-MEL-2 melanoma
MOLT-4 leukemia = system: MOLT-4 leukemia
ACHN renal = system: ACHN renal
HOP-62 NSCLC = system: HOP-62 NSCLC
NCI-H522 lung = system: NCI-H522 lung
SW-620 colon = system: SW-620 colon
OVCAR-5 ovarian = system: OVCAR-5 ovarian
SN12C renal = system: SN12C renal
OVCAR-4 ovarian = system: OVCAR-4 ovarian
UO-31 renal = system: UO-31 renal
LOX IMVI melanoma = system: LOX IMVI melanoma
CCRF-CEM leukemia = system: CCRF-CEM leukemia
HCC-2998 colon = system: HCC-2998 colon

CC(C)(OCc1ccccc1)c1ccccc1P(c1ccccc1)c1ccccc1
58 µM: TGI (KM12 colon)
62.9 µM: TGI (HL-60(TB) leukemia)
94 µM: TGI (NCI-H23 lung)
91.2 µM: TGI (EKVX NSCLC)
> 100 µM: TGI (SF-295 CNS) | TGI (K-562 leukemia) | TGI (SNB-75 CNS) | TGI (SK-MEL-5 melanoma) | TGI (A549 NSCLC) | TGI (U251 CNS) | TGI (786-0 renal) | TGI (SF-268 CNS) | TGI (MALME-3M melanoma) | TGI (OVCAR-3 ovarian) | TGI (SNB-19 CNS) | TGI (SK-MEL-28 melanoma) | TGI (A498 renal) | TGI (HCT-116 colon) | TGI (MDA-MB-435) | TGI (UACC-257 melanoma) | TGI (M14 melanoma) | TGI (MDA-MB-231 breast) | TGI (NCI/ADR-RES ovarian) | TGI (RXF 393 renal) | TGI (PC-3 prostate) | TGI (COLO 205 colon) | TGI (T-47D breast) | TGI (SF-539 CNS) | TGI (HCT-15 colon) | TGI (SK-OV-3 ovarian) | TGI (UACC-62 melanoma) | TGI (CAKI-1 renal) | TGI (IGROV1 ovarian) | TGI (TK-10 renal) | TGI (NCI-H226 lung) | TGI (BT-549 breast) | TGI (HT29 colon) | TGI (SR leukemia) | TGI (HS 578T breast) | TGI (HOP-92 NSCLC) | TGI (NCI-H460 lung) | TGI (DU-145 prostate) | TGI (MCF7 breast) | TGI (OVCAR-8 ovarian) | TGI (SK-MEL-2 melanoma) | TGI (ACHN renal) | TGI (HOP-62 NSCLC) | TGI (NCI-H522 lung) | TGI (SW-620 colon) | TGI (OVCAR-5 ovarian) | TGI (SN12C renal) | TGI (OVCAR-4 ovarian) | TGI (UO-31 renal)
84.5 µM: TGI (MOLT-4 leukemia)
22.8 µM: TGI (RPMI-8226 leukemia)

O=C(COc1cccc(/C=C2/Oc3ccccc3C2=O)c1)Nc1nccs1
31.9 µM: TGI (SF-539 CNS)
3.73 µM: TGI (CCRF-CEM leukemia)
58.5 µM: TGI (T-47D breast)
50.9 µM: TGI (MALME-3M melanoma)
10.2 µM: TGI (LOX IMVI melanoma)
68 µM: TGI (MDA-MB-435)
> 100 µM: TGI (SF-295 CNS) | TGI (EKVX NSCLC) | TGI (A549 NSCLC) | TGI (U251 CNS) | TGI (SNB-19 CNS) | TGI (SK-MEL-28 melanoma) | TGI (NCI-H23 lung) | TGI (HCT-116 colon) | TGI (M14 melanoma) | TGI (NCI/ADR-RES ovarian) | TGI (HCT-15 colon) | TGI (SK-OV-3 ovarian) | TGI (HT29 colon) | TGI (HS 578T breast) | TGI (NCI-H460 lung) | TGI (DU-145 prostate) | TGI (MCF7 breast) | TGI (ACHN renal) | TGI (HOP-62 NSCLC) | TGI (SW-620 colon) | TGI (OVCAR-5 ovarian) | TGI (SN12C renal)
85.4 µM: TGI (A498 renal)
43.7 µM: TGI (BT-549 breast)
32.9 µM: TGI (KM12 colon)
29.8 µM: TGI (MDA-MB-231 breast)
50.1 µM: TGI (OVCAR-8 ovarian)
34.4 µM: TGI (CAKI-1 renal)
30.2 µM: TGI (HOP-92 NSCLC)
31.4 µM: TGI (MOLT-4 leukemia)
53.7 µM: TGI (K-562 leukemia)
58.1 µM: TGI (SNB-75 CNS) | TGI (PC-3 prostate)
23.1 µM: TGI (RPMI-8226 leukemia)
97.9 µM: TGI (COLO 205 colon)
8.58 µM: TGI (HL-60(TB) leukemia)
inactive: GI50 (SF-295 CNS) 36.4 µM | GI50 (K-562 leukemia) 16.4 µM | GI50 (SNB-75 CNS) 17.1 µM | GI50 (EKVX NSCLC) 31.9 µM | GI50 (SK-MEL-5 melanoma) 16.4 µM | GI50 (A549 NSCLC) 23.6 µM | GI50 (U251 CNS) 20.8 µM | GI50 (786-0 renal) 3.3 µM | GI50 (RPMI-8226 leukemia) 4.28 µM | GI50 (SF-268 CNS) 6.23 µM | GI50 (HL-60(TB) leukemia) 2.86 µM | GI50 (MALME-3M melanoma) 21.2 µM | GI50 (OVCAR-3 ovarian) 14.6 µM | GI50 (SNB-19 CNS) 25.4 µM | GI50 (SK-MEL-28 melanoma) 28.9 µM | GI50 (LOX IMVI melanoma) 2.78 µM | GI50 (A498 renal) 20.8 µM | GI50 (NCI-H23 lung) 24.8 µM | GI50 (HCT-116 colon) 22.8 µM | GI50 (MDA-MB-435) 21.2 µM | GI50 (UACC-257 melanoma) 20.7 µM | GI50 (M14 melanoma) 30.5 µM | GI50 (MDA-MB-231 breast) 7.95 µM | GI50 (NCI/ADR-RES ovarian) 30 µM | GI50 (PC-3 prostate) 15.7 µM | GI50 (COLO 205 colon) 24.4 µM | GI50 (KM12 colon) 10.5 µM | GI50 (T-47D breast) 16.8 µM | GI50 (SF-539 CNS) 17.1 µM | GI50 (HCT-15 colon) 28.3 µM | GI50 (SK-OV-3 ovarian) 48.6 µM | GI50 (UACC-62 melanoma) 25.6 µM | GI50 (CAKI-1 renal) 15.9 µM | GI50 (CCRF-CEM leukemia) 1.89 µM | GI50 (TK-10 renal) 15.9 µM | GI50 (NCI-H226 lung) 22.9 µM | GI50 (BT-549 breast) 14.9 µM | GI50 (HCC-2998 colon) 29 µM | GI50 (HT29 colon) 32.7 µM | GI50 (SR leukemia) 4.09 µM | GI50 (HS 578T breast) 24.4 µM | GI50 (HOP-92 NSCLC) 10.1 µM | GI50 (NCI-H460 lung) 31.6 µM | GI50 (DU-145 prostate) 27.8 µM | GI50 (MCF7 breast) 14.8 µM | GI50 (OVCAR-8 ovarian) 16.5 µM | GI50 (MOLT-4 leukemia) 13 µM | GI50 (ACHN renal) 27.4 µM | GI50 (HOP-62 NSCLC) 38.3 µM | GI50 (SW-620 colon) 27.4 µM | GI50 (OVCAR-5 ovarian) 44 µM | GI50 (SN12C renal) 22.4 µM | GI50 (OVCAR-4 ovarian) 19.5 µM
67.9 µM: TGI (NCI-H226 lung)
26.6 µM: TGI (SF-268 CNS)
95.9 µM: TGI (UACC-62 melanoma)
15.9 µM: TGI (SR leukemia)
61.8 µM: TGI (OVCAR-4 ovarian)
38.8 µM: TGI (OVCAR-3 ovarian)
68.7 µM: TGI (TK-10 renal)
56.3 µM: TGI (UACC-257 melanoma)
35.2 µM: TGI (SK-MEL-5 melanoma)
14.4 µM: TGI (786-0 renal)
68.9 µM: TGI (HCC-2998 colon)
